{
  "source": "ChEMBL document CHEMBL5226292",
  "about": "“Nonpungent N-AVAM Capsaicin Analogues and Cancer Therapy” (J Med Chem, 2021)",
  "key": {"DMS-114": {"test_system": "DMS-114", "experiment": "Antiproliferative activity in human DMS-114 cells assessed as cell growth inhibition by MTT assay", "assay_type": "functional, cell-based"}, "[1]": {"experiment": "Antiproliferative activity in mouse WEHI-3 cells assessed as cell growth inhibition", "assay_type": "functional, cell-based"}, "J774": {"test_system": "J774", "experiment": "Antiproliferative activity in mouse J774 cells assessed as cell growth inhibition", "assay_type": "functional, cell-based"}, "P388": {"test_system": "P388", "experiment": "Antiproliferative activity in mouse P388 cells assessed as cell growth inhibition by MTT assay", "assay_type": "functional, cell-based"}, "[2]": {"experiment": "Antiproliferative activity in human Cervical carcinoma cell assessed as cell growth inhibition", "assay_type": "functional, cell-based"}, "Ca-Ski": {"test_system": "Ca-Ski", "experiment": "Antiproliferative activity in human Ca-Ski cells assessed as cell growth inhibition", "assay_type": "functional, cell-based"}, "[3]": {"experiment": "Cytotoxicity against human Bone marrow cell assessed as cell growth inhibition", "assay_type": "toxicity, cell-based", "settings": "bone marrow cells"}, "[4]": {"experiment": "Induction of apoptosis in human PBMC cells", "assay_type": "functional"}, "TSU": {"test_system": "TSU", "experiment": "Antiproliferative activity in human TSU cells assessed as cell growth inhibition", "assay_type": "functional, cell-based"}, "EFM-19": {"test_system": "EFM-19", "experiment": "Antiproliferative activity in human EFM-19 cells assessed as cell growth inhibition by MTT assay", "assay_type": "functional, cell-based"}, "MCF7": {"test_system": "MCF7", "experiment": "Antiproliferative activity in human MCF7 cells assessed as cell growth inhibition by MTT assay", "assay_type": "functional, cell-based"}, "T47D": {"test_system": "T47D", "experiment": "Antiproliferative activity in human T47D cells assessed as cell growth inhibition by MTT assay", "assay_type": "functional, cell-based"}, "PPC-1": {"test_system": "PPC-1", "experiment": "Antiproliferative activity in human PPC-1 cells assessed as cell growth inhibition", "assay_type": "functional, cell-based"}, "C6": {"test_system": "C6", "experiment": "Antiproliferative activity against rat C6 cells assessed as inhibition of cell growth at 10 uM relative to control", "assay_type": "functional", "set-up": "scale not given: the % may be the effect or the level left"}, "[5]": {"experiment": "AUC in sc dosed mouse", "assay_type": "ADME, organism-based", "set-up": "route sc", "settings": "in vivo"}, "[6]": {"experiment": "AUC in po dosed mouse", "assay_type": "ADME, organism-based", "set-up": "route po", "settings": "in vivo"}, "[7]": {"experiment": "Drug concentration in Sprague-Dawley rat hepatocytes measured after 30 mins relative to control", "assay_type": "ADME, cell-based, Hepatocyte", "settings": "0.5 h"}, "[8]": {"experiment": "Drug concentration in rat enterocytes measured after 30 to 60 mins relative to control"}},
  "data": [
    {"molecule": "CCCCC/C=C\\C/C=C\\CCCCCCCC(=O)NCc1ccc(O)c(OC)c1", "values": [
      {"measurement": "IC50", "setting": "DMS-114", "value": 43000, "unit": "nM"}
    ]},
    {"molecule": "CCCCCC[C@@H](C/C=C\\CCCCCCCC(=O)NCc1ccc(O)c(OC)c1)OC(=O)Cc1ccccc1", "values": [
      {"measurement": "IC50", "setting": "[1]", "value": 31, "unit": "µg/mL"},
      {"measurement": "IC50", "setting": "J774", "value": 10, "unit": "µg/mL"},
      {"measurement": "IC50", "setting": "P388", "value": 49, "unit": "µg/mL"},
      {"measurement": "IC50", "setting": "[2]", "value": 74, "unit": "µg/mL"},
      {"measurement": "IC50", "setting": "Ca-Ski", "value": 122, "unit": "µg/mL"},
      {"measurement": "IC50", "setting": "[3]", "value": 73, "unit": "µg/mL"}
    ]},
    {"molecule": "CCCCCC[C@H](O)C/C=C\\CCCCCCCC(=O)NCc1ccc(O)c(OC)c1", "values": [
      {"measurement": "IC50", "setting": "[1]", "value": 3, "unit": "µg/mL"},
      {"measurement": "IC50", "setting": "J774", "value": 8, "unit": "µg/mL"},
      {"measurement": "IC50", "setting": "P388", "value": 9, "unit": "µg/mL"},
      {"measurement": "IC50", "setting": "[2]", "value": 149, "unit": "µg/mL"},
      {"measurement": "IC50", "setting": "[3]", "value": 40, "unit": "µg/mL"}
    ]},
    {"molecule": "CCCCC/C=C\\C/C=C\\C/C=C\\C/C=C\\CCCC(=O)NCc1ccc(O)c(OC)c1", "values": [
      {"measurement": "Activity", "setting": "[4]", "value": 60, "unit": "%"},
      {"measurement": "IC50", "setting": "TSU", "value": 100, "unit": "nM"},
      {"measurement": "IC50", "setting": "EFM-19", "value": 550, "unit": "nM"},
      {"measurement": "IC50", "setting": "DMS-114", "value": 15000, "unit": "nM"},
      {"measurement": "IC50", "setting": "MCF7", "value": 400, "unit": "nM"},
      {"measurement": "IC50", "setting": "T47D", "value": 350, "unit": "nM"},
      {"measurement": "IC50", "setting": "PPC-1", "value": 1000, "unit": "nM"}
    ]},
    {"molecule": "CCCCCCCCCCCCCCCC(=O)NCc1ccc(O)c(OC)c1", "values": [
      {"measurement": "IC50", "setting": "EFM-19", "value": 1000, "unit": "nM"},
      {"measurement": "IC50", "setting": "MCF7", "value": 2200, "unit": "nM"},
      {"measurement": "IC50", "setting": "T47D", "value": 1600, "unit": "nM"}
    ]},
    {"molecule": "COc1cc(CNC(=O)CCCC/C=C/C(C)C)ccc1O", "note": "[CAPSAICIN]", "values": [
      {"measurement": "Activity", "setting": "C6", "value": 20, "unit": "%"},
      {"measurement": "IC50", "setting": "MCF7", "value": 100000, "unit": "nM"},
      {"measurement": "IC50", "setting": "T47D", "value": 100000, "unit": "nM"}
    ]},
    {"molecule": "CCCCCCCC/C=C\\CCCCCCCC(=O)NCc1ccc(O)c(OC)c1", "note": "[OLVANIL]", "values": [
      {"measurement": "AUC", "setting": "[5]", "value": 8, "unit": "µg·h/g"},
      {"measurement": "AUC", "setting": "[6]", "value": 0.1, "unit": "µg·h/g"},
      {"measurement": "Activity", "setting": "[4]", "value": 20.5, "unit": "%"},
      {"measurement": "IC50", "setting": "EFM-19", "value": 700, "unit": "nM"},
      {"measurement": "Drug uptake", "setting": "[7]", "value": 4, "unit": "%"},
      {"measurement": "IC50", "setting": "DMS-114", "value": "> 50000", "unit": "nM"},
      {"measurement": "Activity", "setting": "C6", "value": 95, "unit": "%"},
      {"measurement": "IC50", "setting": "MCF7", "value": 1000, "unit": "nM"},
      {"measurement": "Drug uptake", "setting": "[8]", "value": 1, "unit": "%"},
      {"measurement": "IC50", "setting": "T47D", "value": 750, "unit": "nM"}
    ]},
    {"molecule": "CC/C=C\\C/C=C\\C/C=C\\CCCCCCCC(=O)NCc1ccc(O)c(OC)c1", "values": [
      {"measurement": "IC50", "setting": "DMS-114", "value": 15000, "unit": "nM"}
    ]}
  ]
}
